From US9688676B2, “Tyrosine kinase inhibitors” (PRINCIPIA BIOPHARMA INC., priority 2015, dated 2017)
pIC50: −log10 of the molar value.

Target: BTK (Homo sapiens (Human), UniProt Q06187)
Test: BTK enzymatic activity assay (Caliper-based kinase assay)
Assay type: biochemical
Details: human recombinant BTK 0.5 nM, ATP 16 μM, 3 h room temperature
Method: A Caliper-based kinase assay (Caliper Life Sciences, Hopkinton, Mass.) was used to measure inhibition of BTK kinase activity of a compound of the present disclosure. […] The reaction was then terminated with EDTA, final concentration 20 mM and the phosphorylated reaction product was quantified on a Caliper Desktop Profiler (Caliper LabChip 3000). […] This value is presented as the IC50.

BTK, sequence (Q06187 whole entry): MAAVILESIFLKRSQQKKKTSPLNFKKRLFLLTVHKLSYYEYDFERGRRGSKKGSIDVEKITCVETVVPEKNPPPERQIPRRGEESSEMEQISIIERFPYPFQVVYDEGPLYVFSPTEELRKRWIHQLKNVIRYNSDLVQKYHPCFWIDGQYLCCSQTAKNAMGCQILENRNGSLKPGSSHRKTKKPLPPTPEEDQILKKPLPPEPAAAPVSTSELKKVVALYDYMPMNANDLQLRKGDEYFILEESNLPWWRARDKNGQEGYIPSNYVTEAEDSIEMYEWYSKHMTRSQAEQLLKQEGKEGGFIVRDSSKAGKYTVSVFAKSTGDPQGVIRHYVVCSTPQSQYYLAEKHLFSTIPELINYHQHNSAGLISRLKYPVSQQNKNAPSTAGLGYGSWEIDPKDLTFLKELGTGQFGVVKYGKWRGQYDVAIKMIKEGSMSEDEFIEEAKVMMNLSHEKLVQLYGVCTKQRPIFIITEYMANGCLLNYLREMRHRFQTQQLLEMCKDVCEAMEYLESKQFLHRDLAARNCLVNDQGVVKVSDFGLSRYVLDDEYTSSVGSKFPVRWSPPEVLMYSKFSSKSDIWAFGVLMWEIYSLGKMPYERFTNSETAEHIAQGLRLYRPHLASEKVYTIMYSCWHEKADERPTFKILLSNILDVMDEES

Compound | pIC50
CC(C)(C=C(C#N)C(=O)N1CCC[C@@H](n2c(=O)n(-c3ccc(Oc4ccccc4)cc3)c3c(N)nccc32)C1)N1CCC(F)(F)C1 [Compound 58, (R)-2-(3-(4-amino-2-oxo-3-(4-phenoxyphenyl)-2,3-dihydro-1H-imidazo[4,5-c]pyridin-1-yl)piperidine-1-carbonyl)-4-(3,3-difluoropyrrolidin-1-yl)-4-methylpent-2-enenitrile] | 8.38
CN(C1COC1)C(C)(C)C=C(C#N)C(=O)N1CCC[C@H]1Cn1c(=O)n(-c2ccc(Oc3ccccc3)cc2)c2c(N)nccc21 [Compound 36, (S)-2-(2-((4-amino-2-oxo-3-(4-phenoxyphenyl)-2,3-dihydro-1H-imidazo[4,5-c]pyridin-1-yl)methyl)pyrrolidine-1-carbonyl)-4-methyl-4-(methyl(oxetan-3-yl)amino)pent-2-enenitrile] | 7.80
C=CC(=O)N1CCC[C@H]1Cn1c(=O)n(-c2ccc(Oc3ccccc3)cc2)c2c(N)nccc21 [Compound 22, (S)-1-((1-acryloylpyrrolidin-2-yl)methyl)-4-amino-3-(4-phenoxyphenyl)-1H-imidazo[4,5-c]pyridin-2(3H)-one] | 8.32
CN1CCN(C(=O)C(C)(C)C=C(C#N)C(=O)N2CCC[C@@H](n3c(=O)n(-c4ccc(Oc5ccccc5)cc4)c4c(N)nccc43)C2)CC1 [Compound 49, (R)-2-(3-(4-amino-2-oxo-3-(4-phenoxyphenyl)-2,3-dihydro-1H-imidazo[4,5-c]pyridin-1-yl)piperidine-1-carbonyl)-4,4-dimethyl-5-(4-methylpiperazin-1-yl)-5-oxopent-2-enenitrile] | 7.89
(R)-2-(3-(4-amino-2-oxo-3-(4-phenoxyphenyl)-2,3-dihydro-1H-imidazo[4,5-c]pyridin-1-yl)piperidine-1-carbonyl)-3-(4-methyl-1-(oxetan-3-yl)piperidin-4-yl)acrylonitrile [Compound 42] | 8.39
C=C(F)C(=O)N1CCC[C@@H](n2c(=O)n(-c3ccc(Oc4ccccc4)cc3)c3c(N)nccc32)C1 [Compound 67, (R)-4-amino-1-(1-(2-fluoroacryloyl)piperidin-3-yl)-3-(4-phenoxyphenyl)-1H-imidazo[4,5-c]pyridin-2(3H)-one] | 8.92
CC(=O)N1CCN(C(C)(C)C=C(C#N)C(=O)N2CCC[C@@H](n3c(=O)n(-c4ccc(Oc5ccccc5)cc4)c4c(N)nccc43)C2)CC1 [Compound 44, (R)-4-(4-acetylpiperazin-1-yl)-2-(3-(4-amino-2-oxo-3-(4-phenoxyphenyl)-2,3-dihydro-1H-imidazo[4,5-c]pyridin-1-yl)piperidine-1-carbonyl)-4-methylpent-2-enenitrile] | 8.48
Cc1cc(-n2c(=O)n([C@@H]3CCCN(C(=O)C(C#N)=CC(C)(C)N4CCN(C5COC5)CC4)C3)c3ccnc(N)c32)ccc1Oc1ccccc1 [Compound 28, (R)-2-(3-(4-amino-3-(3-methyl-4-phenoxyphenyl)-2-oxo-2,3-dihydro-1H-imidazo[4,5-c]pyridin-1-yl)piperidine-1-carbonyl)-4-methyl-4-(4-(oxetan-3-yl)piperazin-1-yl)pent-2-enenitrile] | 8.32
CC(C)(C=C(C#N)C(=O)N1CCC[C@@H](n2c(=O)n(-c3ccc(Oc4ccccc4)cc3)c3c(N)nccc32)C1)N1CCN2C(=O)CC[C@@H]2C1 [Compound 61, 2-((R)-3-(4-amino-2-oxo-3-(4-phenoxyphenyl)-2,3-dihydro-1H-imidazo[4,5-c]pyridin-1-yl)piperidine-1-carbonyl)-4-methyl-4-((R)-6-oxohexahydropyrrolo[1,2-a]pyrazin-2(1H)-yl)pent-2-enenitrile] | 8.60
CC(C)(C=C(C#N)C(=O)N1CCC[C@@H](n2c(=O)n(-c3ccc(Oc4ccccc4)cc3)c3c(N)ncnc32)C1)N1CCN(C2COC2)CC1 [Compound 31, (R)-2-(3-(6-amino-8-oxo-7-(4-phenoxyphenyl)-7H-purin-9(8H)-yl)piperidine-1-carbonyl)-4-methyl-4-(4-(oxetan-3-yl)piperazin-1-yl)pent-2-enenitrile] | 8.43
CC(C)(C=C(C#N)C(=O)N1CCC[C@@H](n2c(=O)n(-c3ccc(Oc4ccccc4)cc3)c3c(N)nccc32)C1)c1ccccn1 [Compound 55, (R)-2-(3-(4-amino-2-oxo-3-(4-phenoxyphenyl)-2,3-dihydro-1H-imidazo[4,5-c]pyridin-1-yl)piperidine-1-carbonyl)-4-methyl-4-(pyridin-2-yl)pent-2-enenitrile] | 8.51
CC(C)(C=C(C#N)C(=O)N1CCC[C@@H](n2c(=O)n(-c3ccc(Oc4ccccc4)cc3)c3c(N)nccc32)C1)N1CCN(C2(C)COC2)CC1 [Compound 30, (R)-2-(3-(4-amino-2-oxo-3-(4-phenoxyphenyl)-2,3-dihydro-1H-imidazo[4,5-c]pyridin-1-yl)piperidine-1-carbonyl)-4-methyl-4-(4-(3-methyloxetan-3-yl)piperazin-1-yl)pent-2-enenitrile] | 8.82
N#CC(=CC1(c2ccccc2)CC1)C(=O)N1CCC[C@@H](n2c(=O)n(-c3ccc(Oc4ccccc4)cc3)c3c(N)nccc32)C1 [Compound 46, (R)-2-(3-(4-amino-2-oxo-3-(4-phenoxyphenyl)-2,3-dihydro-1H-imidazo[4,5-c]pyridin-1-yl)piperidine-1-carbonyl)-3-(1-phenylcyclopropyl)acrylonitrile] | 7.88
CC(C)(C=C(C#N)C(=O)N1CCC[C@@H](n2c(=O)n(-c3ccc(Oc4cccc(F)c4F)cc3)c3c(N)nccc32)C1)N1CCN(C2COC2)CC1 [Compound 25, (R)-2-(3-(4-amino-3-(4-(2,3-difluorophenoxy)phenyl)-2-oxo-2,3-dihydro-1H-imidazo[4,5-c]pyridin-1-yl)piperidine-1-carbonyl)-4-methyl-4-(4-(oxetan-3-yl)piperazin-1-yl)pent-2-enenitrile] | 8.27
CC1(C=C(C#N)C(=O)N2CCC[C@@H](n3c(=O)n(-c4ccc(Oc5ccccc5)cc4)c4c(N)ncnc43)C2)CCN(C2COC2)CC1 [Compound 32, (R)-2-(3-(6-amino-8-oxo-7-(4-phenoxyphenyl)-7H-purin-9(8H)-yl)piperidine-1-carbonyl)-3-(4-methyl-1-(oxetan-3-yl)piperidin-4-yl)acrylonitrile] | 8.54
COCC1(C=C(C#N)C(=O)N2CCC[C@@H](n3c(=O)n(-c4ccc(Oc5ccccc5)cc4)c4c(N)nccc43)C2)CCOCC1 [Compound 66, (R)-2-(3-(4-amino-2-oxo-3-(4-phenoxyphenyl)-2,3-dihydro-1H-imidazo[4,5-c]pyridin-1-yl)piperidine-1-carbonyl)-3-(4-(methoxymethyl)tetrahydro-2H-pyran-4-yl)acrylonitrile] | 8.70
CO[C@H]1CCN(C(C)(C)C=C(C#N)C(=O)N2CCC[C@@H](n3c(=O)n(-c4ccc(Oc5ccccc5)cc4)c4c(N)nccc43)C2)C1 [Compound 59, 2-((R)-3-(4-amino-2-oxo-3-(4-phenoxyphenyl)-2,3-dihydro-1H-imidazo[4,5-c]pyridin-1-yl)piperidine-1-carbonyl)-4-((S)-3-methoxypyrrolidin-1-yl)-4-methylpent-2-enenitrile] | 8.59
CCN1CCN(C(C)(C)C=C(C#N)C(=O)N2CCC[C@@H](n3c(=O)n(-c4ccc(Oc5ccccc5)cc4)c4c(N)nccc43)C2)CC1=O [Compound 40, (R)-2-(3-(4-amino-2-oxo-3-(4-phenoxyphenyl)-2,3-dihydro-1H-imidazo[4,5-c]pyridin-1-yl)piperidine-1-carbonyl)-4-(4-ethyl-3-oxopiperazin-1-yl)-4-methylpent-2-enenitrile] | 8.24
CN1CCN(C(C)(C)C=C(C#N)C(=O)N2CCC[C@H]2Cn2c(=O)n(-c3ccc(Oc4ccccc4)cc3)c3c(N)nccc32)CC1 [Compound 34, (S)-2-(2-((4-amino-2-oxo-3-(4-phenoxyphenyl)-2,3-dihydro-1H-imidazo[4,5-c]pyridin-1-yl)methyl)pyrrolidine-1-carbonyl)-4-methyl-4-(4-methylpiperazin-1-yl)pent-2-enenitrile] | 7.64
N#CC(=CC1CC[S+]([O-])CC1)C(=O)N1CCC[C@@H](n2c(=O)n(-c3ccc(Oc4ccccc4)cc3)c3c(N)nccc32)C1 (stereo partly drawn) [Compound 39, (R)-2-(3-(4-amino-2-oxo-3-(4-phenoxyphenyl)-2,3-dihydro-1H-imidazo[4,5-c]pyridin-1-yl)piperidine-1-carbonyl)-3-(1-oxidotetrahydro-2H-thiopyran-4-yl)acrylonitrile] | 8.28
CN(C)C(=O)C(C)(C)C=C(C#N)C(=O)N1CCC[C@@H](n2c(=O)n(-c3ccc(Oc4ccccc4)cc3)c3c(N)nccc32)C1 [Compound 50, (R)-5-(3-(4-amino-2-oxo-3-(4-phenoxyphenyl)-2,3-dihydro-1H-imidazo[4,5-c]pyridin-1-yl)piperidin-1-yl)-4-cyano-N,N,2,2-tetramethyl-5-oxopent-3-enamide] | 8.08
CC(C)(C=C(C#N)C(=O)N1CCC[C@@H](n2c(=O)n(-c3ccc(Oc4ccccc4)cc3)c3c(N)nccc32)C1)N1CCNCC1 [Compound 47, (R)-2-(3-(4-amino-2-oxo-3-(4-phenoxyphenyl)-2,3-dihydro-1H-imidazo[4,5-c]pyridin-1-yl)piperidine-1-carbonyl)-4-methyl-4-(piperazin-1-yl)pent-2-enenitrile] | 8.51
COC[C@@H]1CCCN1C(C)(C)C=C(C#N)C(=O)N1CCC[C@@H](n2c(=O)n(-c3ccc(Oc4ccccc4)cc3)c3c(N)nccc32)C1 [Compound 63, 2-((R)-3-(4-amino-2-oxo-3-(4-phenoxyphenyl)-2,3-dihydro-1H-imidazo[4,5-c]pyridin-1-yl)piperidine-1-carbonyl)-4-((S)-2-(methoxymethyl)pyrrolidin-1-yl)-4-methylpent-2-enenitrile] | 8.85
C[C@@H]1CN(C(C)(C)C=C(C#N)C(=O)N2CCC[C@@H](n3c(=O)n(-c4ccc(Oc5ccccc5)cc4)c4c(N)nccc43)C2)C[C@H](C)N1 [Compound 19, 2-((R)-3-(4-amino-2-oxo-3-(4-phenoxyphenyl)-2,3-dihydro-1H-imidazo[4,5-c]pyridin-1-yl)piperidine-1-carbonyl)-4-((3R,5S)-3,5-dimethylpiperazin-1-yl)-4-methylpent-2-enenitrile] | 8.11
